In patent US7622551B2, “Leukocyte stimulating peptides” (POSCO, priority 2004, dated 2009):
Where no end group is shown, it is not given here.

How the values were obtained:
[1] = test system: differentiated HL60 cells; test: Arachidonic acid (AA) release in [3H]AA-labeled dHL60 cells; type: cell-based, human; details: for Inhibition of AA release induced by P14, P18, P21, P24 / AA release stimulating activity (in words): dHL60 cells; for Inhibition of AA release induced by P14, P18, P21, P24: 1 μM peptide, MAFP, AACOCF3, BEL at 10 μM; for Folds of increase (% of total), arachidonic acid release: differentiated HL60 cells, 10 μM of peptide; for AA release stimulating activity (in words): 10 μM
Method: (§1) U937 (human histiocytic lymphoma cells), HL60 (human promyelocytic leukemia cells), Raw 264.7 (mouse macrophage), Jurkat (human acute T cell leukemia), PC12 (rat adrenal pheochromocytoma cells), 3Y1 (Rat embryonic fibroblasts), 3T3L1 (preadipocytes), and NCI-H292 (human mucoepidermoid pulmonary carcinoma cells) were obtained from the American Type Culture Collection (Rockville, Md.) and maintained as recommended. FPR- or FPRL1 expressing RBL-2H3 cells were cultured as described previously (He et al. J. Immunol. 2000. 165: 4598-4605). Cells were maintained at about 1×10^6 cells/ml under standard incubator conditions (humidified atmosphere, 95% air, 5% CO2, at 37° C.). HL60 cells were induced to differentiate into the granulocyte phenotype by adding dimethylsulfoxide (DMSO) (final concentration 1.25%, v/v) for 4 days to the culture medium, as described previously (Itoh et al. Blood. 1998. 92: 1432-1441).
For the initial screening of the PS-SPCLs, we measured the AA release stimulating activity of each peptide pool. Cultured dHL60 cells (10^7 cells/ml) were pre-labeled with 0.5 μCi/ml of (^3H)-AA in RPMI 1640 medium containing 10% FBS for 90 min at 37° C. in a humidified incubator supplied with 95% air and 5% CO2, as described previously (Bae et al. J. Immunol. 2000. 164: 4089-4096). The labeled cells were then washed twice with serum-free RPMI 1640 and incubated in RPMI 1640 medium containing 0.1% fatty acid-free BSA for 15 min at 37° C. After discarding the medium, the cells were stimulated with various concentrations of peptide for the indicated times. Radioactivity in the medium and of collected cells was determined with a liquid scintillation counter. When investigating the effects of inhibitors, cells were preincubated with the indicated concentrations of each inhibitor or vehicle for 15 min prior to stimulation.

[2] = test system: differentiated HL60 cells; test: [Ca2+]i increase in fura-2 loaded dHL60 cells; type: cell-based, human; details: for [Ca^2+]i: differentiated HL60 cells, fura-2, 1 μM of peptide; for Concentration of maximal activity, [Ca^2+]i increase: data not shown
Method: as §1
(§2) The level of [Ca^2+]i was determined using Grynkiewicz's method using fura-2/AM (Grynkiewicz et al. J. Biol. Chem. 1985. 260: 3440-3550). Briefly, prepared cells were incubated with 3 μM of fura-2/AM at 37° C. for 50 min in serum-free RPMI 1640 medium under continuous stirring. 2×10^6 cells were aliquoted for each assay in Ca^2+ free Locke's solution (154 mM NaCl, 5.6 mM KCl, 1.2 mM MgCl2, 5 mM HEPES, pH 7.3, 10 mM glucose, and 0.2 mM EGTA). Fluorescence changes were measured at the dual excitation wavelength of 340 nm and 380 nm, and the calculated fluorescence ratio was translated into [Ca^2+]i.

[3] = test system: human neutrophils; test: Superoxide generation (cytochrome c reduction) in human neutrophils; type: cell-based
Method: Peripheral blood leukocyte concentrates were donated by the Ulsan Red Cross Blood Center (Ulsan, Korea). PBMCs were separated on a Histopaque-1077 gradient. After two washings with HBSS without Ca^2+ and Mg^2+, the PBMCs were suspended in 10% FBS containing RPMI and incubated for 60 min at 37° C. to let the monocytes attach to the culture dish. Cells were washed 5 times with warmed RPMI medium to remove lymphocytes, and then the attached monocytes were collected, as described previously (Bae et al. J. Leukoc. Biol. 1999. 65: 241-248). Human neutrophils were isolated according to standard procedures; i.e., dextran sedimentation, hypotonic lysis of erythrocytes, and using a medium lymphocyte separation gradient, as described previously (Seo et al. J. Immunol. 1997. 158: 1895-1901). Isolated human leukocytes were then used promptly.
We determined superoxide anion generation by measuring cytochrome c reduction using a microtiter 96 well plate ELISA reader (Bio-Tekinstruments, EL312e, Winooski, Vt.) as described previously (Bae et al. Blood. 2001. 97: 2854-2862). Human neutrophils (1×10^6 cells/100 μl of RPMI 1640 medium per well of a 96-well plate) were preincubated with 50 μM of cytochrome c at 37° C. for 1 min and then incubated with the indicated peptide concentrations. Superoxide generation was determined from change in light absorption at 550 nm over 5 minutes at 1 min intervals.

[4] = test system: undifferentiated HL60 cells; test: [Ca2+]i increase in undifferentiated HL60 cells; type: cell-based, human; details: peptides 10 μM (FIG. 8)
Method: as §1, §2

[5] = test system: human monocytes; test: Chemotaxis assay (modified Boyden chamber), monocytes; type: cell-based; details: FIG. 6B; control peptide at concentrations less than 10 μM
Method: FIGS. 6A and 6B show chemotactic effect of peptides. Assays were performed using a modified Boyden chamber assay, as described in the Examples. Isolated human neutrophils (A) or monocytes (B) (1×10^6 cells/ml in serum free RPMI) were added to the upper wells of a 96-well chemotaxis chamber and migration across a 3 μm pore size (5 μm for monocytes) polycarbonate membrane was assessed after 2 hrs incubation at 37° C. The numbers of migrated cells were determined by counting them in a high power field (400×). Results are presented as means±S.E. of three independent experiments each performed in duplicate.
Chemotaxis assays were performed using multiwell chambers (Neuroprobe Inc., Gaithersburg, Md.) (Bae et al. Blood. 2001. 97: 2854-2862). Briefly, prepared human monocytes were suspended in RPMI at a concentration of 1×10^6 cells/ml, and 25 μl of the suspension was then placed onto the upper well of a chamber separated by a 5 μm polyhydrocarbon filter (3 μm pores size not polyvinylpyrrolidone coated, as is needed for neutrophils) from peptides or N-formyl-methionyl-leucyl-phenylalanine (fMLF) in the lower well. After incubation for 2 hours (90 minutes for neutrophils) at 37° C., non-migrated cells were removed by scraping, and cells that migrated across the filter were dehydrated, fixed, and stained with hematoxylin (Sigma, St. Louis, Mo.). Stained cells were counted in five randomly chosen high power fields (HPF) (400×) (Bae et al. Blood. 2001. 97: 2854-2862).

Compound	[Ca^2+]i [2] [nM]	Folds of increase (% of total), arachidonic acid release [1] [folds]	AA release stimulating activity (in words) [1]	other results
CCCCC/C=C\C/C=C\C/C=C\C/C=C\CCCC(=O)C(F)(F)F [AACOCF3, reference compound]				Inhibition of AA release induced by P14, P18, P21, P24 [1]: almost completely prevented
Nc1ncnc2c1ncn2[C@@H]1O[C@H](COP(=O)(O)OP(=O)(O)OP(=O)(O)O)[C@@H](O)[C@H]1O [ATP, reference compound]				[Ca^2+]i increase (in words) ([2]; dHL60 cells, 500 μM of ATP (FIG. 4)): stimulated; Effect of PTX on agonist-induced [Ca^2+]i rise ([2]; dHL60 cells, PTX 150 ng/ml for 20 hr): not inhibited
CC(=O)OCOC(=O)CN(CC(=O)OCOC(C)=O)c1ccccc1OCCOc1ccccc1N(CC(=O)OCOC(C)=O)CC(=O)OCOC(C)=O [BAPTA/AM, reference compound]				Inhibition of AA release induced by P14, P18, P21, P24 [1]: inhibited
O=C1O/C(=C/Br)CCC1c1cccc2ccccc12 (stereo not shown) [BEL, reference compound]				Inhibition of AA release induced by P14, P18, P21, P24 [1]: did not interfere
CSCC[C@H](NC=O)C(=O)N[C@@H](CC(C)C)C(=O)N[C@@H](Cc1ccccc1)C(=O)O [fMLF, N-formyl-methionyl-leucyl-phenylalanine, reference compound]				Superoxide production ([3]; 1 μM of peptide, cytochrome c reduction): 26.5 ± 1.32 nmole/10^6 cells; [Ca^2+]i increase in undifferentiated HL60 cells [4]: did not affect
CCCCC[C@H](O)/C=C/C=C\C=C\C=C\[C@@H](O)[C@@H](O)CCCC(=O)O [lipoxin A4, reference compound]				[Ca^2+]i increase in undifferentiated HL60 cells [4]: did not affect
KKHHKM-NH2 [Peptide P1]	0	1.25 ± 0.168		[Ca^2+]i increase (in words) ([2]; dHL60 cells, 1 μM): did not affect
KKHHVM-NH2 [Peptide P2]	0	1.23 ± 0.153		
KKHYKM-NH2 [Peptide P3]	8 ± 3.2	1.45 ± 0.306		
KKHYPM-NH2 [Peptide P4]	14 ± 4.1	1.41 ± 0.247		
KKHYVM-NH2 [Peptide P5]	34 ± 9.5	1.68 ± 0.390		
KKHYYM-NH2 [Peptide P6]	50 ± 11.7	1.52 ± 0.296		
KKYHKM-NH2 [Peptide P7]	0	1.42 ± 0.226		[Ca^2+]i increase (in words) ([2]; dHL60 cells, 1 μM): did not affect
KKYHVM-NH2 [Peptide P8]	31 ± 3.5	1.30 ± 0.170		
KKYYKM-NH2 [Peptide P9]	85 ± 15.8	1.49 ± 0.268		
KKYYPM-NH2 [Peptide P10]	152 ± 28.7	2.27 ± 0.199	most potent	Concentration of maximal activity, [Ca^2+]i increase ([2]; dHL60 cells): approximately 3 μM
KKYYVM-NH2 [Peptide P11]	158 ± 25.3	2.49 ± 0.023	most potent	Concentration of maximal activity, [Ca^2+]i increase ([2]; dHL60 cells): approximately 3 μM
KKYYYM-NH2 [Peptide P12]	153 ± 13.2	2.58 ± 0.168	most potent	Concentration of maximal activity, [Ca^2+]i increase ([2]; dHL60 cells): approximately 3 μM
MKYHKM-NH2 [Peptide P19]	13 ± 3.0	1.68 ± 0.221		
MKYHVM-NH2 [Peptide P20]	155 ± 16.3	2.55 ± 0.271	most potent	
MKYYPM-NH2 [Peptide P22]	168 ± 21.6	2.95 ± 0.668	most potent	Concentration of maximal activity, [Ca^2+]i increase ([2]; dHL60 cells): approximately 3 μM
MKYYVM-NH2 [Peptide P23]	153 ± 13.2	3.05 ± 0.401	most potent	Concentration of maximal activity, [Ca^2+]i increase ([2]; dHL60 cells): approximately 3 μM
RKYHKM-NH2 [Peptide P13]	10 ± 4.2	1.47 ± 0.220		
RKYYKM-NH2 [Peptide P15]	77 ± 12.1	1.71 ± 0.214		
RKYYPM-NH2 [Peptide P16]	135 ± 21.4	2.57 ± 0.450	most potent	Concentration of maximal activity, [Ca^2+]i increase ([2]; dHL60 cells): approximately 3 μM
RKYYVM-NH2 [Peptide P17]	143 ± 10.2	2.82 ± 0.210	most potent	Concentration of maximal activity, [Ca^2+]i increase ([2]; dHL60 cells): approximately 3 μM; Superoxide generation (in words) [3]: stimulate superoxide generation in a concentration-dependent manner; Cellular chemotaxis in human monocytes (in words) [5]: induced cellular chemotaxis
